Source: patent US4704397A, “Pharmaceutical salts of 4-(9-acridinyl-amino) methanesulfon-m-anisidide” (Warner-Lambert Company, priority 1981, dated 1987)
Read-outs that look alike come from different tables or passages of the source.

Columns and labels:
[1] = type: physicochemical; details: warming to room temperature and shaking
From the text: The salts of the present invention allow one to prepare solutions of m-AMSA without the aid of dimethylacetamide. Depending upon the salt, concentration and temperature,standing may result in certain of the solutions of salts forming gels. However, a salt need only remain in solution for a period long enough for it to be administered to a patient.
Stability of Preferred --m-AMSA Salts

[2] = tested on: mice; details: studies using mice; cited from earlier work

Compound | return of gelled solution to fluid state ([1]; 10 mg/ml after storing at 5 °C) | return of gelled solution to fluid state ([1]; lower concentrations gelled at 5 °C) | activity in treating mammals [2]
COc1cc(NS(C)(=O)=O)ccc1Nc1c2ccccc2nc2ccccc12 [gluconate, 4'-(9-acridinylamino)methanesulfon-m-anisidide D-gluconate] | could not be achieved | could be returned to a fluid state | –
COc1cc(NS(C)(=O)=O)ccc1Nc1c2ccccc2nc2ccccc12 [m-AMSA, 4'-(9-acridinylamino)methanesulfon-m-anisidide] | – | – | high degree of activity
